Activity calls are given as the source filed them.
How the values were obtained:
[1] = biological target: T1, Endoribonuclease toxin MazF (Escherichia coli K-12, UniProt P0AE70); experiment: MazF toxin RNase activators, dose response, biochemical, fluorescence, single-stranded RNA substrate, uHTS hits (AID 588481); type: functional
T1 sequence (P0AE70 whole entry): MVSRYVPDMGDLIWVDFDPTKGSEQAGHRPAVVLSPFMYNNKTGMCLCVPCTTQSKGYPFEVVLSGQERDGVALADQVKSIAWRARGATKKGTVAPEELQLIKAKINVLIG

[2] = biological target: T1, Endoribonuclease toxin MazF; experiment: fluorescent RNA oligo signal without MazF, dose response, counter-screen for MazEF activator project, biochemical, fluorescence, single-stranded RNase substrate (AID 588502); type: functional
[3] = Luminescence Cell-Based Dose Retest to Confirm Inhibitors of Cancer Stem Cells. [Related pubchem assays (depositor defined):AID2717, AID2721]; type: functional; details: Homo sapiens
[4] = cytotoxicity in HMLE control line with eGFP shRNA, dose response, counter-screen for HMLE_sh_ECad selective toxicity project, cell-based, HMLE_sh_eGFP, luminescence (AID 463074); type: functional, Homo sapiens;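 also: HMLE human mammary epithelial cells expressing control shRNA against eGFP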
[5] = off-target signal loss in HeLa-CEM21 co-culture – HeLa F-luc CTL cells, cherry-picked, counter-screen for HIV-1 Env fusion inhibitor project, dose response (AID 652040); type: functional, cell-based;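 also: potency for signal decrease marking cytotoxic or nonspecific inhibition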
HEK293 [6] = experiment: cells; details: Homo sapiens
[7] = inhibitors of HIV Env-driven cell fusion, dose response, cherry-pick (AID 652057); type: functional, cell-based
HEK293 [8] = experiment: cells; details: Homo sapiens; remark: listed apart in the source
[9] = ZM109 Env clade C HIV-1 fusion inhibitors, dose response, HeLa effector, CEM target cells, luciferase, cherry-pick (AID 652058); type: functional, cell-based
[10] = inhibitors of clade B AD8 Env fusion, dose response, cell-based, cherry-pick (AID 652062); type: functional;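 also: luciferase signal from cell-cell fusion driven by HIV-1 clade B AD8 Env; potency is for inhibitors of fusion seen as a drop in luminescence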
[11] = biological target: Voltage-gated inwardly rectifying potassium channel KCNH2 (Homo sapiens, UniProt Q12809); details: Potency;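 also: confirmatory quantitative high-throughput screen measuring inhibition of hERG channel activity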
Chain of Voltage-gated inwardly rectifying potassium channel KCNH2 (Q12809 whole entry): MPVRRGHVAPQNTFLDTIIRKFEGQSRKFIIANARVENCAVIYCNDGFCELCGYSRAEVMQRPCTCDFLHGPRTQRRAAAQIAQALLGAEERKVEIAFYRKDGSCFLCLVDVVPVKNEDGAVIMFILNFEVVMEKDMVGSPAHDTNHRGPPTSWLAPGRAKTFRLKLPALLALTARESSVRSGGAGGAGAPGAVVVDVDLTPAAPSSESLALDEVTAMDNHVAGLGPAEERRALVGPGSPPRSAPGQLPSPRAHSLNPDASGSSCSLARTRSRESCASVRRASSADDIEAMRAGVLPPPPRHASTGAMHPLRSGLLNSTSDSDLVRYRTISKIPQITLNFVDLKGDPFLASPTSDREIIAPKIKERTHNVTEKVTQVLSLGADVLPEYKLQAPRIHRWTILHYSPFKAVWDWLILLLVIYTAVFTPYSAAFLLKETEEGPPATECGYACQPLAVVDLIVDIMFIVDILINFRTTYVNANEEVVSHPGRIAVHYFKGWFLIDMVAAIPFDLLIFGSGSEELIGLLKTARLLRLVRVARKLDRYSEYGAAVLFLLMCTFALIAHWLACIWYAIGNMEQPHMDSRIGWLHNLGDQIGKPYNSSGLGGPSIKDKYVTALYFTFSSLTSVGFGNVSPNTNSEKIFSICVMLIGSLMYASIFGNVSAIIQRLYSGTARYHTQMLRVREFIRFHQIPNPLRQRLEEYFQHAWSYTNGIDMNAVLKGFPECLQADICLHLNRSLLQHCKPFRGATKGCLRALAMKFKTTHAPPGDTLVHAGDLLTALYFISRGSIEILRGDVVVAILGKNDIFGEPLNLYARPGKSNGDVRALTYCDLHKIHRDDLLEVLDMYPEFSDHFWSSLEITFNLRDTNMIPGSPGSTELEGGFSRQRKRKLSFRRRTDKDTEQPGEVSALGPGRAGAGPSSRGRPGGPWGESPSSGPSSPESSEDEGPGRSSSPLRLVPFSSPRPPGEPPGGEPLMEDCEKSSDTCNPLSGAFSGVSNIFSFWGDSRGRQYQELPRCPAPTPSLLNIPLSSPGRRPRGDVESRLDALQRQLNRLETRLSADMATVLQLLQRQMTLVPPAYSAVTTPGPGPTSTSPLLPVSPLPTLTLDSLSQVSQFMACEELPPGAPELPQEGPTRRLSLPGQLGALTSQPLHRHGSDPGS

[12] = biological target: FAD-linked sulfhydryl oxidase ALR (Homo sapiens, UniProt P55789); experiment: inhibitors of human ALR sulfhydryl oxidase, dose response, biochemical, H2O2 detection, luminescence, cherry-pick (AID 493248)
Chain of FAD-linked sulfhydryl oxidase ALR (P55789 whole entry): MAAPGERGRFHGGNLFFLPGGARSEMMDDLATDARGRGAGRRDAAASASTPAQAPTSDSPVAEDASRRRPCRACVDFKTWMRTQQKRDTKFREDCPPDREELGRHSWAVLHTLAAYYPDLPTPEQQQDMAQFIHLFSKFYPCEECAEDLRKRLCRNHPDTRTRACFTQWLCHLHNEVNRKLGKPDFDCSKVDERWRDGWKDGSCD

Escherichia coli = experiment: microbe, parasite or virus in culture
CAAX prenyl protease 2 = CAAX prenyl protease 2 (Homo sapiens, UniProt Q9Y256); experiment: human Rce1 protease inhibitors, dose response, biochemical, yeast membranes, quenched-peptide fluorescence, cherry-pick (AID 588849)
Chain of CAAX prenyl protease 2 (Q9Y256 whole entry): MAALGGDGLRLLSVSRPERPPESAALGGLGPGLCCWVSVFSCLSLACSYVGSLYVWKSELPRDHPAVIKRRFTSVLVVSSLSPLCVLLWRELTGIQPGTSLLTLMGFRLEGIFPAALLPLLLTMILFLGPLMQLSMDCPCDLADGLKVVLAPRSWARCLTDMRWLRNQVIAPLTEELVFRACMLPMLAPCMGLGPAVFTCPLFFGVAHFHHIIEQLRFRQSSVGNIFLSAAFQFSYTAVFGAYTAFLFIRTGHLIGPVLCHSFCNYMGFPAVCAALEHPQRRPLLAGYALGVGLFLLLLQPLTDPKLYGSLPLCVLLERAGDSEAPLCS

[13] = biological target: T2, Apoptotic protease-activating factor 1 (Homo sapiens, UniProt O14727); experiment: SAR analysis of small molecule inhibitors of Apaf-1 in a Fluorescent assay.; type: functional; details: read-out: IC50_Mean
T2 sequence (O14727 whole entry): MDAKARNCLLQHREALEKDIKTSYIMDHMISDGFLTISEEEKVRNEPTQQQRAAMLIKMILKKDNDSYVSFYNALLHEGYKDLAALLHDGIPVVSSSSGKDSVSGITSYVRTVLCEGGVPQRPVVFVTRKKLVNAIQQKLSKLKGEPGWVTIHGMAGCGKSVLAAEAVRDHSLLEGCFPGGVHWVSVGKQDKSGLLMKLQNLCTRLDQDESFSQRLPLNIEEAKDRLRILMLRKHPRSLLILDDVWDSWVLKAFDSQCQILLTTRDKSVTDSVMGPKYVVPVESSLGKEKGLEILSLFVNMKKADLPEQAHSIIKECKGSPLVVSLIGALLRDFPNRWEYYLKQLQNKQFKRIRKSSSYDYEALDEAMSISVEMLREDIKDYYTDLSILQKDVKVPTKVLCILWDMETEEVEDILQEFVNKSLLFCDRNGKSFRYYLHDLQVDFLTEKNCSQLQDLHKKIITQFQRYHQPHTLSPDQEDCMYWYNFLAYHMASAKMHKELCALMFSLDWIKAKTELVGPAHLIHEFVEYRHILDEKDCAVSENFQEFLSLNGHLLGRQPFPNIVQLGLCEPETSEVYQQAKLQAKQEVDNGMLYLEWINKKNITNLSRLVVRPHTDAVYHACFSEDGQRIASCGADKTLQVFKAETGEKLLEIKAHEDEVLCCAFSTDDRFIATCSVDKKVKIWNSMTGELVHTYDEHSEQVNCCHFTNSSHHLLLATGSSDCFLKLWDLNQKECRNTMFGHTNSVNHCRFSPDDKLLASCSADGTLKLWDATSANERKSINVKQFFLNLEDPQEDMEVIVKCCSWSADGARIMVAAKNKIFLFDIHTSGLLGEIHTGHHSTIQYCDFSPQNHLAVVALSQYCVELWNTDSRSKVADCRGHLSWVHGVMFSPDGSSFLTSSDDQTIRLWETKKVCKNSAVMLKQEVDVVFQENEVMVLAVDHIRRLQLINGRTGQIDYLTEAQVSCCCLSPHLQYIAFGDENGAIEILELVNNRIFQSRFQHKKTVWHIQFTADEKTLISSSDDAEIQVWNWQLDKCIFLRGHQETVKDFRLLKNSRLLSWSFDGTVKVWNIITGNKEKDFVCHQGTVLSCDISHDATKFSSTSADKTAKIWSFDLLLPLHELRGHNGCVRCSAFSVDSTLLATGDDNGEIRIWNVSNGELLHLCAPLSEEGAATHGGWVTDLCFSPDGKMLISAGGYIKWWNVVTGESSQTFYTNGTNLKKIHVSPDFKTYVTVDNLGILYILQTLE

**Q.** With `Cc1cccc(N=Nc2c(O)[nH]c3ccc(F)cc23)c1` as the molecule, how does the EC50 [1] read?
**A.** The EC50 was 38.7 µM (inactive).

**Q.** What about the EC50 [2] of the same molecule?
**A.** The EC50 was > 99 µM (inactive).

**Q.** What does the source list for `COc1cccc(-c2sc3ccc(OC)cc3c2-c2ccc(OCCN3CCOCC3)cc2)c1`?
**A.** AC50 [3]: 2.09 µM (active); AC50 [4]: 3.73 µM (inconclusive)

**Q.** Which results are given for `CCN(C[C@H]1N[C@@](CC)(C(=O)OC)[C@H]2C(=O)N(Cc3ccccc3)C(=O)[C@@H]12)S(=O)(=O)c1ccc(C)cc1`?
**A.** AC50 [5]: 3.4 µM (active); EC50 (HEK293 [6]): > 59.6 µM (inactive); AC50 [7]: 2.36 µM (active); EC50 (HEK293 [8]): > 59.6 µM (inactive); AC50 [9]: 2.37 µM (active); AC50 [10]: 4.32 µM (active)

**Q.** Which AC50 [11] does the source give for `CC(C=O)Cc1ccc(C(C)(C)C)cc1` (configuration not stated) here?
**A.** The AC50 was 50.1 µM (inconclusive).

**Q.** For `CN(N=Cc1ccc([N+](=O)[O-])cc1)c1ccccn1`, which EC50 [1] is on record?
**A.** The EC50 was 51.8 µM (inactive).

**Q.** And the EC50 [2]?
**A.** Its EC50 is 37.8 µM (inactive).

**Q.** With `Cc1ccc(SCc2noc(C(=O)NC(C)C)c2C(=O)O)cc1C` as the molecule, how does the AC50 [12] read?
**A.** Its AC50 is 4.26 µM (active).

**Q.** What about the AC50 (Escherichia coli) of the same molecule?
**A.** Its AC50 is 65.6 µM (active).

**Q.** For `CCN(CC)c1ccc(/C=N/NC(=O)C(O)(c2ccccc2)c2ccccc2)o1`, which AC50 (CAAX prenyl protease 2) is on record?
**A.** The AC50 was > 100 µM (inactive).

**Q.** For `O=C1c2cc(Cl)ccc2-n2c1nc1ccccc1c2=O`, which IC50 [13] is on record?
**A.** The IC50 was 60.3 µM (active).

— ChEMBL document CHEMBL1201862, “PubChem BioAssay data set” (2004)
